The text below walks through data of patent US20070225253A1, “Use of a trioxopyrimidine for the treatment and prevention of bronchial inflammatory diseases” (priority 2004, published 2007).

One assay concerns the target Human MMP-9 (Homo sapiens, UniProt P14780). As to the kind of experiment: MMP enzymatic activity, modified fluorescence assay (DNP-substrate). It counts as biochemical. The conditions noted are these: read-out: IC50 MMP-9. As to the method: (§1) IC50 values are measured by an in vitro assay for MMP enzymatic activity. Such an assay is described by Stack, M. S., and Gray, R. D., J. Biol. Chem. 264 (1989) 4277-4281. This assay is based on the determination of MMP enzymatic activity on a dinitrophenol substrate and fluorescence measurement of the substrate after cleaving by MMPs.
(§2) Inhibitors were tested in a modified fluorescence-assay as described by Stack, M. S., and Gray, R. D., J. Biol. Chem. 264 (1989) 4277-4281. Human MMP-1, MMP-2, MMP-3, MMP-9 and MMP-14 are commercially available (e.g. Calbiochem). The pro-enzymes were activated with 1 mM APMA (incubation for 30 min at 37° C.) immediately before testing. Activated enzyme is diluted to 100 ng/ml in incubation buffer (50 mM Tris, 100 mM NaCl, 10 mM CaCl2, pH 7.6). The compounds were dissolved in 100% DMSO. […] DNP-substrate (Bachem M1855, 255 μM) was dissolved in incubation buffer.
(§3) The test tube contains 970 μl incubation buffer, 10 μl inhibitor solution and 10 μl enzyme solution. The reaction was started by adding the 10 μl substrate solution.
(§4) Kinetics of activity were determined using excitation at 280 nm and emission at 346 nm measured on a FluoroMax™ (Spex Industries Inc., Edison, N.J., USA) over 120 sec. DMSO has been used as control instead of inhibitor solution.
(§5) IC50's are defined as the concentration of inhibitor that gives a signal that is 50% of the positive enzyme control.

For another assay, the target named is Human MMP-14 (Homo sapiens, UniProt P50281). Described as above. Type of assay: biochemical. The conditions noted are these: read-out: IC50 MMP-14. On the procedure: as §1, §2, §3, §4, §5
Assay [1] deals with allergen-induced airway inflammation and bronchial hyperresponsiveness. As to the kind of experiment: Mouse model of asthma (OVA), inhalation, short exposure challenge. It counts as in vivo, mice. The conditions noted are these: aerosol, short-term exposure; Compound I 0.03 and 0.3 mg/ml, fluticasone 1 mg/ml; vs placebo, p<0.0001. As to the method: (§6) In order to study the modulation of airway inflammation by intraperitoneal injection of Compound I, mice were sensitized with 10 μg ovalbumin alumin-adsorbed (aluminject, perbio, Erembodegem, Belgium) injected intraperitonealy at days 0 and 7 and were subsequently exposed to OVA 1% or PBS aerosols for 30 minutes from day 21 to 24. Intraperitoneal injections were performed 30 min before OVA inhalations. The different injected formulations were: cremophor 10%-DMSO 10%-PBS 80%- Compound I30 mg/kg (suspension); cremophor 10%-DMSO 10%-PBS 80%- Compound I3.75 mg/kg (solution); HPβCD 200 mM Compound I 7.5 mg/kg (solution); HPβCD 200 mM. All results were compared to mice sensitized and exposed to PBS and OVA treated with PBS injected intraperitonealy. In order to study the modulation of airway inflammation by inhaled Compound I, mice were sensitized as described previously. Two protocols referred to as short exposure challenge and long-term exposure challenge were used. In the short exposure challenge, mice were exposed to aerosols of Compound I-complex at concentrations of 0.03 and 0.3 mg/ml of active compound in aqueous solution of from day 21 to 27 during 30 min in a Plexiglas exposure chamber (30×20×15 cm). Mice were exposed to OVA aerosols 30 minutes after the Compound I inhalation from day 23 to 27. In the so called long-term inhalation challenge, mice were exposed to aerosols of Compound Iat concentrations of 0.03 and 0.3 mg/ml complexed with HPβCD in an aqueous solution during 30 min five days odd weeks and to OVA aerosols 3 days odd weeks for 11 weeks. No inhalations were performed during even weeks.
The aerosol were produced by using an ultrasonic nebuliser SYSTAM (Systeme Assistance Medical, Le Ledat, France), the vibration frequency of which is 2.4 MHz with variable vibration intensity and ventilation levels. Vibration intensity was fixed in position 6 and the ventilation level was 25(ν1/2)1/min.
Twenty-four hours after the last allergen exposure, the bronchial hyper responsiveness was determined by measuring the Penh using a barometric plethysmograph as proposed by Hamelmann, E., et al., Am. J Respir. Crit. Care Med. 156 (1997) 766-775). The Penh was measured at baseline and 5 min after the inhalation of increasing doses (25, 50, 75 and 100 mM) of methacholine (Mch).
Immediately after the assessment of airway responsiveness, mice were sacrificed and 1 ml of PBS free of ionised calcium and magnesium but supplemented with 0.05 mM sodium EDTA was instilled 4 times via a tracheal cannula and recovered by gentle manual aspiration. The recovered bronchoalveolar lavage fluid (BAL) was centrifuged (1800 rpm for 10 min at 4° C.). […] A value from 0 to 3 per criteria was adjudged to each tissue section scored. […]

The subject of assay [2] is allergen-induced airway inflammation. As to the kind of experiment: Mouse model of asthma (OVA), inhalation, long-term exposure challenge (11 weeks). Type of assay: in vivo, mice. The following applies: aerosol, long term allergen exposure (11 weeks). On the procedure: as §6, with “In the so called long-term inhalation challenge, mice were exposed to aerosols of Compound Iat concentrations of 0.03 and 0.3 mg/ml complexed with HPβCD in an aqueous solution during 30 min five days odd weeks and to OVA aerosols 3 days odd weeks for 11 weeks. No inhalations were performed during even weeks.” left out
Twenty-four hours after the last allergen exposure, the bronchial hyper responsiveness was determined by measuring the Penh using a barometric plethysmograph as proposed by Hamelmann, E., et al., Am. […] The Penh was measured at baseline and 5 min after the inhalation of increasing doses (25, 50, 75 and 100 mM) of methacholine (Mch).
Immediately after the assessment of airway responsiveness, mice were sacrificed and 1 ml of PBS free of ionised calcium and magnesium but supplemented with 0.05 mM sodium EDTA was instilled 4 times via a tracheal cannula and recovered by gentle manual aspiration. […] A value from 0 to 3 per criteria was adjudged to each tissue section scored. […]

Sequence of Human MMP-9 (P14780 107-707 limits assumed): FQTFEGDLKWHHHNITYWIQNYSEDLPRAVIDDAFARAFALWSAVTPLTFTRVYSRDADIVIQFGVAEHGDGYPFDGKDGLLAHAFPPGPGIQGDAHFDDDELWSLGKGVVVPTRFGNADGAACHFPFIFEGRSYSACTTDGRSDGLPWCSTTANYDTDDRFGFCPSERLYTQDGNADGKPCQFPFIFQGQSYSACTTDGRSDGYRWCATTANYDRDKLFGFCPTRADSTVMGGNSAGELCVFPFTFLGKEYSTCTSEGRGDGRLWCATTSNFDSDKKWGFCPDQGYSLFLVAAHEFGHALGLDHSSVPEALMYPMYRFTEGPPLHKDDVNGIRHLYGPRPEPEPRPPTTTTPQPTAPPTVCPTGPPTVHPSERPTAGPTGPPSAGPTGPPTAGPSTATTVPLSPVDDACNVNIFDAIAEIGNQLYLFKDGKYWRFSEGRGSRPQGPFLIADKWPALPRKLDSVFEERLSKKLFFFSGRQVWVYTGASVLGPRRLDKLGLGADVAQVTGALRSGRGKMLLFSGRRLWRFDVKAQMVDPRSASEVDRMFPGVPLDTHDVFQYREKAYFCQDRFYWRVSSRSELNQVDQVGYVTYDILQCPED

Usually IC50 stands for the concentration that gives 50% inhibition. For the compound `CNC(=O)[C@H](Cc1ccccc1)NC(=O)[C@H](CC(C)C)[C@H](CSc1cccs1)C(=O)NO` [Batimastat, reference compound], the IC50 at Human MMP-9 came to 23 nM; at Human MMP-14, 19 nM.
Turning to `CCC(=O)O[C@]1(C(=O)SCF)[C@H](C)C[C@H]2[C@@H]3C[C@H](F)C4=CC(=O)C=C[C@]4(C)[C@@]3(F)[C@@H](O)C[C@@]21C`, the “eosinophilic inflammation in BAL” value in assay [1] was “significant decrease”. In assay [2] (p<0.0001), the peribronchial inflammation score entry is “significantly decreased”. Moreover, the BAL eosinophilia entry in assay [2] (p<0.001) was “significantly decreased”. For the same compound, the “tissue eosinophil infiltration score” value in assay [2] (p<0.01) is “decreased”.
